Laboratory results from patent publication US20250282785A1, “PYRROLIDINONE DERIVATIVES AS INHIBITORS OF NF KAPPA B INDUCING KINASE” (priority 2022, published 2025).

Columns and labels:
[1] = biological target: Recombinant Human NF-Kappab-Inducing Kinase (NIK/MAP3K14) (Homo sapiens, UniProt Q99558); test: Inhibition of auto-phosphorylation of recombinant human NIK/MAP3K14 (AlphaScreen); format: biochemical; conditions: NIK/MAP3K14 auto-phosphorylation, 5 microM ATP, 1 nM enzyme, 2 h at 25° C.; average of values; read-out: Assay 1 IC50
Recombinant Human NF-Kappab-Inducing Kinase (NIK/MAP3K14), sequence (Q99558 whole entry): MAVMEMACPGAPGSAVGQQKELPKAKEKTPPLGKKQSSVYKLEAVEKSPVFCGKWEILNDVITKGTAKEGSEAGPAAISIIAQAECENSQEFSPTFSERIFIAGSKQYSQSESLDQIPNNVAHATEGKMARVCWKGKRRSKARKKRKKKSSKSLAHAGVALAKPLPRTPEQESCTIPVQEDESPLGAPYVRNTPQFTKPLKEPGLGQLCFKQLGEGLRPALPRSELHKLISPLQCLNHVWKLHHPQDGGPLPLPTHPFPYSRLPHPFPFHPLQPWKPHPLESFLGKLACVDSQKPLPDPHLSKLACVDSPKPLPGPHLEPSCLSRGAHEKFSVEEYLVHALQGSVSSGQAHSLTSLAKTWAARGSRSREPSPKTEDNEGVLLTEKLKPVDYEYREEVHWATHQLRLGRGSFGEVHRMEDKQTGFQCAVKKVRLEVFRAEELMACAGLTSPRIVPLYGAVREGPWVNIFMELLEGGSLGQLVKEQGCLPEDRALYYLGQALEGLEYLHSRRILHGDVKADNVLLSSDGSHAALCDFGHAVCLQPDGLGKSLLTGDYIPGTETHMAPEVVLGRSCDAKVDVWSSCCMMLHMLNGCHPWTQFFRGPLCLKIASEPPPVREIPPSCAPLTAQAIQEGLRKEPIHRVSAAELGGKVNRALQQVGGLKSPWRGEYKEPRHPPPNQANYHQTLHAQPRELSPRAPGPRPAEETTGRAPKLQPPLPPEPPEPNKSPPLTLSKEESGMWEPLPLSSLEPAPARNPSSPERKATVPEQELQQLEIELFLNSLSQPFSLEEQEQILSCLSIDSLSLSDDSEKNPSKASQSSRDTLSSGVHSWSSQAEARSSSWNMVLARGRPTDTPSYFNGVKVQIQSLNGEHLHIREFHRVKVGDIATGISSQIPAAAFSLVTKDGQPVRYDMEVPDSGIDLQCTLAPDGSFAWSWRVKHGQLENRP
Summary of the method: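 GST-tagged NIK (1 nM) auto-phosphorylation with 5 µM ATP in Tris pH 7.5/MgCl2 buffer, 0.7% DMSO, 2 h at 25 °C. Phospho-IKK Ser176/180 antibody detected by AlphaScreen beads. Signal normalized to full-enzyme and no-ATP controls; IC50 from sigmoidal fit of % inhibition vs log concentration.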

[2] = system: p-IKKα levels in L363 (NIK translocated multiple myeloma) cells; test: Effect of compounds on p-IKKα levels in L363 cells (AlphaLISA SureFire Ultra); format: cell-based; conditions: Homo sapiens, L-363; L363 cells, BAFF stimulated, MG132, 6 h; average of values; read-out: Assay 2 IC50
Summary of the method: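 L363 myeloma cells were BAFF-stimulated (250 ng/ml) overnight in DMEM/0.5% BSA, then exposed 6 h at 37° C to compound (11-point 1:3 series, 0.3% DMSO) with BAFF plus 10 uM MG132. p-IKKα (Ser 176/180) was read by AlphaLISA SureFire Ultra in lysates. IC50 came from sigmoidal fits normalized to stimulated and unstimulated controls.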

| Structure (SMILES) | IC50 [1] [nM] | IC50 [2] [nM] |
| --- | --- | --- |
| CN1CC[C@@](O)(c2cc(-c3cccc(-c4nc(C(N)=O)c(CN)s4)c3)no2)C1=O [Example 237, (R)-5-(Aminomethyl)-2-(3-(5-(3-hydroxy-1-methyl-2-oxopyrrolidin-3-yl)isoxazol-3-yl)phenyl)thiazole-4-carboxamide] | < 100 | > 501 |
| CN1CC[C@@](O)(c2cc(-c3cccc(-c4nc(C(N)=O)c(CNc5ccn(C)n5)s4)c3)no2)C1=O [Example 238, (R)-2-(3-(5-(3-Hydroxy-1-methyl-2-oxopyrrolidin-3-yl)isoxazol-3-yl)phenyl)-5-(((1-methyl-1H-pyrazol-3-yl)amino)methyl)thiazole-4-carboxamide] | < 100 | 100 to 500 |
| Cc1cn(C)nc1Nc1sc(-c2cccc(-c3cc([C@]4(O)CCN(C)C4=O)on3)c2)nc1C(N)=O [Example 239, (R)-5-((1,4-Dimethyl-1H-pyrazol-3-yl)amino)-2-(3-(5-(3-hydroxy-1-methyl-2-oxopyrrolidin-3-yl)isoxazol-3-yl)phenyl)thiazole-4-carboxamide] | < 100 | < 100 |
| CN1CC[C@@](O)(c2cc(-c3ccc(F)c(-c4cc(C(F)(F)F)cc(C(N)=O)n4)c3)no2)C1=O [Example 240, (R)-6-(2-Fluoro-5-(5-(3-hydroxy-1-methyl-2-oxopyrrolidin-3-yl)isoxazol-3-yl)phenyl)-4-(trifluoromethyl)picolinamide] | < 100 | > 501 |
| CN1CC[C@@](O)(c2cc(-c3ccnc(-c4cc(C5CC5)c(N)c(C(N)=O)n4)c3)no2)C1=O [Example 241, (R)-5-Amino-4-cyclopropyl-4′-(5-(3-hydroxy-1-methyl-2-oxopyrrolidin-3-yl)isoxazol-3-yl)-[2,2′-bipyridine]-6-carboxamide] | < 100 | < 100 |
| CN1CC[C@@](O)(c2cc(-c3cccc(-c4cc(C5CC5)c(N)c(C(N)=O)n4)c3F)no2)C1=O [Example 242, (R)-3-Amino-4-cyclopropyl-6-(2-fluoro-3-(5-(3-hydroxy-1-methyl-2-oxopyrrolidin-3-yl)isoxazol-3-yl)phenyl)picolinamide] | < 100 | < 100 |
| CN1CC[C@@](O)(c2cc(-c3cc(F)cc(-c4cc(C5CC5)c(N)c(C(N)=O)n4)c3)no2)C1=O [Example 243, (R)-3-Amino-4-cyclopropyl-6-(3-fluoro-5-(5-(3-hydroxy-1-methyl-2-oxopyrrolidin-3-yl)isoxazol-3-yl)phenyl)picolinamide] | < 100 | < 100 |
| CN1CC[C@@](O)(c2cc(-c3cc(-c4cc(C5CC5)c(N)c(C(N)=O)n4)ccc3F)no2)C1=O [Example 244, (R)-3-Amino-4-cyclopropyl-6-(4-fluoro-3-(5-(3-hydroxy-1-methyl-2-oxopyrrolidin-3-yl)isoxazol-3-yl)phenyl)picolinamide] | < 100 | > 501 |
| CN1CC[C@@](O)(c2cc(-c3ccc(F)c(-c4cc(C5CC5)c(N)c(C(N)=O)n4)c3)no2)C1=O [Example 245, (R)-3-Amino-4-cyclopropyl-6-(2-fluoro-5-(5-(3-hydroxy-1-methyl-2-oxopyrrolidin-3-yl)isoxazol-3-yl)phenyl)picolinamide] | < 100 | < 100 |
